Changes are numbered by the printed parent chain.
Columns and labels:
[1] = target: T1, human ALDH2*2 recombinant mutant enzyme (E487K) (Homo sapiens, UniProt P05091, E504K); assay: ALDH2 enzymatic assay (NADH at 340 nm), recombinant mutant enzyme; format: biochemical; parameters: key: −: no activation or inhibition; +: activation less than control 1; ++: activation similar to control 1, within 10%; +++: activation more than control 1 and less than control (compound 161); ++++: activation similar to compound 161, within 10%; conditions: activation relative to benchmarks control 1 and compound 161
T1 construct: His-tag (pTrcHis vector) (N); made in house; host or cells: E. coli BL21
T1 sequence (P05091 18-517 E504K): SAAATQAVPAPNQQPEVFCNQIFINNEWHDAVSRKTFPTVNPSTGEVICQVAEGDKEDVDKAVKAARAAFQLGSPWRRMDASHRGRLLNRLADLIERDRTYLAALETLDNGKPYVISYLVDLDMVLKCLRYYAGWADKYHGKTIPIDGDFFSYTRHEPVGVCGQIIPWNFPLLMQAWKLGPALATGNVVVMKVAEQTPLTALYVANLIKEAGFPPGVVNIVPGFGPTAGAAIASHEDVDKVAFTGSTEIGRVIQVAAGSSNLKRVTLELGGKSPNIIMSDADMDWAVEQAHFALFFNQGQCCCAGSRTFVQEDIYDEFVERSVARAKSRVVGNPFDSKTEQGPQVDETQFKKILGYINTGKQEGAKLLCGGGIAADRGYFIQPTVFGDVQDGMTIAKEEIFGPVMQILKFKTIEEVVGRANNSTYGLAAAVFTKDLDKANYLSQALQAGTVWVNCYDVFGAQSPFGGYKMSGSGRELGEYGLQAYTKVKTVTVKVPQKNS
Text: (§1) ALDH2 catalyzes the oxidative reaction of substrate acetaldehyde to acetic acid using NAD^+ as a cofactor. Enzymatic activity, or catalytic rate, of aldehyde dehydrogenase (ALDH2) can be measured spectrophotometrically at UV wavelength λ340 nm by the accumulation of reduced product NADH derived from NAD^+. […] This method is well-established in the literature [e.g. D. K. Rex, W. F. Bosron, J. E. Smialek, T. K. Li, Alcohol Clin Exp Res 9, 147 (1985)].
(§2) Full-length wild type human ALDH2 cDNA was purchased from ATCC (No. MGC-1806. GenBank ID: BC002967). The 18-amino acid mitochondria transport signal sequence was removed by PCR and cloned into the NheI/HindIII sites of a His-tag vector, pTrcHis, using standard molecular cloning techniques. The human ALDH2* cDNA construct containing the Asian E487K mutation was obtained by site-directed mutagenesis to create the E487K substitution of the wild type ALDH2. Both human clones were designed to express a recombinant protein with the His-tag at the N-terminus of the protein. For the co-expression experiments of human ALDH2 wild type and ALDH2*2 heterotetramers, a wild type ALDH2 gene and a ALDH2 E487K gene were inserted separately into the two multiple cloning sites of pETDuet-1 vector. (Novagen, Calif., USA). All the vectors were transformed into BL21 E. coli host cells and subjected to 0.5 mM IPTG induction for protein expression at 30° C. Purifications of the recombinant proteins by affinity nickel columns (HisTrap, GE Healthy Science, USA) were carried out using standard protocols according to manufacturer's instructions (Novagen, USA).
(§3) Control 1 and compound 161 are used as benchmarks and the symbols have the following representation: […]

[2] = target: T2, human ALDH2 wild type (Homo sapiens, UniProt P05091); assay: ALDH2 enzymatic assay (NADH at 340 nm), recombinant wild type enzyme; format: biochemical; parameters: key: −: no activation or inhibition; +: activation less than control 1; ++: activation similar to control 1, within 10%; +++: activation more than control 1 and less than control (compound 161); ++++: activation similar to compound 161, within 10%; conditions: activation relative to benchmarks control 1 and compound 161
T2 construct: His-tag (pTrcHis vector) (N); made in house; host or cells: E. coli BL21
T2 sequence (P05091 18-517): T1 sequence (P05091 18-517 E504K) with K487E
Text: as §1, §2, §3

Structure (SMILES) | ALDH2 (mutant) [1] | ALDH2 (wild-type) [2]
CCC(C)Oc1nccc(Cl)c1C(=O)NCc1ccc(OC)c(F)c1 (centres unmarked) [Compound 202] | + | ++
COc1ccc(CNC(=O)c2c(Cl)cccc2Cl)cc1F [Compound 102] | ++ | ++
COc1ccc(CNC(=O)c2c(Cl)cccc2OCCC(C)C)cc1F [Compound 122] | ++ | +
CCCOc1nccc(Cl)c1C(=O)NCc1ccc(OC)c(F)c1 [Compound 194] | +++ | +
COc1ccc(CNC(=O)c2c(C)ccnc2OCC2CCNC2)cc1F (centres unmarked) [Compound 237] | + | +
O=C(NCc1ccc2ocnc2c1)c1c(Cl)ccnc1OCC1CC1 [Compound 260] | − | +
COc1ccc(CNC(=O)c2c(Cl)ccnc2OCC2CC2)c(F)c1F [Compound 179] | ++ | +
COc1ccc(CNC(=O)c2c(Cl)cccc2NCC(C)O)cc1F (centres unmarked) [Compound 159] | ++ | ++
COc1ccc(CNC(=O)c2c(C)ccnc2OC(C)C)cc1F [Compound 233] | + | +
Cc1nc2ccc(CNC(=O)c3c(Cl)ccnc3OCC3CC3)cc2[nH]1 [Compound 261] | + | +
COc1cc(F)c(CNC(=O)c2c(Cl)ccnc2OCC(C)C)cc1F [Compound 269] | ++++ | ++++
CS(=O)(=O)c1ccc(CNC(=O)c2c(Cl)ccnc2OCC2CC2)cc1F [Compound 253] | + | +
COc1ccc(CNC(=O)c2c(OCC3CC3)ccnc2OCC2CC2)cc1F [Compound 162] | ++ | +
COc1ccc(CNS(=O)(=O)c2c(Cl)cccc2Cl)cc1F [Compound 154] | + | +
COc1ccc(CNC(=O)c2c(Cl)ccnc2SCC(C)C)cc1F [Compound 218] | + | +
CCCSc1nccc(Cl)c1C(=O)NCc1ccc(OC)c(F)c1 [Compound 215] | +++ | ++++
COc1ccc(CNC(=O)c2c(Cl)cccc2OCC(C)(C)N(C)C)cc1F [Compound 167] | + | +
COc1ccc(CNC(=O)c2c(Cl)cccc2NC2CCCC2)cc1F [Compound 148] | + | +
COc1ccc(CNC(=O)c2c(Cl)cccc2Cl)cc1O [Compound 101] | + | +
COc1ccc(CNS(=O)(=O)c2c(Cl)cccc2OCC2CC2)cc1F [Compound 164] | + | +
COc1ccc(CNC(=O)c2c(Cl)cccc2Cl)cc1Cl [Compound 100] | + | +
COc1ccc(CNC(=O)c2c(Cl)ccnc2OCC2CCNC2)cc1F (centres unmarked) [Compound 205] | + | +
COc1ccc(CNC(=O)c2c(Cl)ccn(C)c2=O)cc1F [Compound 273] | + | +
COc1c(F)cc(CNC(=O)c2c(Cl)ccnc2Cl)cc1F [Compound 173] | ++ | +
COc1ccc(CNC(=O)c2c(Cl)ccnc2Oc2ccccc2)cc1F [Compound 206] | + | ++
COc1cc(F)c(CNC(=O)c2c(Cl)ccnc2OCC2CC2)cc1F [Compound 190] | ++++ | ++++
COc1ccc(CNC(=O)c2cc(Br)ccc2C)cc1F [Compound 123] | + | +
COc1ccc(CNC(=O)c2c(C)ccnc2OC2CCC2)cc1F [Compound 238] | + | +
COc1ccc(CNC(=O)c2c(C)cccc2Br)cc1F [Compound 125] | + | +
O=C(NCc1ccc(F)c(F)c1)c1c(Cl)cccc1Br [Compound 153] | + | +

Second part, the compound after the results:

ALDH2 (mutant) [1] | ALDH2 (wild-type) [2] | Structure (SMILES)
++ | ++ | CCOc1nccc(Cl)c1C(=O)NCc1ccc(OC)c(F)c1 [Compound 193]
+++ | +++ | COc1ccc(CNC(=O)c2c(Cl)ccnc2OC)cc1F [Compound 192]
++ | + | COc1ccc(CNC(=O)c2c(C)ccnc2OCC2CC2)cc1F [Compound 231]
++++ | ++++ | COc1ccc(CNC(=O)c2c(Cl)cccc2OCC(C)C)cc1F [Compound 149]
+ | + | COc1ccc(CNC(=O)c2c(Cl)cccc2Br)cc1Cl [Compound 104]
+ | − | COc1ccc(CNC(=O)c2c(Cl)cccc2Br)cc1O [Compound 105]
+ | + | O=C(O)c1ccc(CNC(=O)c2c(Cl)cccc2Br)cc1 [Compound 127]
− | − | O=C(NCc1ccc(O)c(F)c1)c1c(Cl)ccnc1OCC1CC1 [Compound 248]
+++ | + | O=C(NCc1ccc2c(c1)CCO2)c1c(Cl)ccnc1OCC1CC1 [Compound 245]
++ | ++ | CCC(CC)Oc1nccc(Cl)c1C(=O)NCc1ccc(OC)c(F)c1 [Compound 201]
+ | + | CS(=O)(=O)c1ccc(CNc2cccc(Cl)c2C(=O)NCc2ccc3c(c2)OCO3)cc1 [Compound 118]
++ | + | COc1ccc(CNC(=O)c2c(Cl)cccc2Br)cc1F [Compound 106]
+ | + | COc1cccc(CNC(=O)c2c(Cl)cccc2Cl)c1 [Compound 103]
+ | + | O=C(NCc1ccc(OC(F)(F)F)c(F)c1)c1c(Cl)ccnc1NCC1CC1 [Compound 191]
++ | + | COc1ccc(CNC(=O)c2c(Cl)ccnc2Cl)c(F)c1F [Compound 174]
+ | + | CCC(CC)Oc1nccc(C)c1C(=O)NCc1ccc(OC)c(F)c1 [Compound 234]
+ | + | COc1ccc(CNC(=O)c2c(C(F)(F)F)ccnc2OCC2CCC2)cc1F [Compound 229]
++ | ++ | COCCOc1cccc(Cl)c1C(=O)NCc1ccc(OC)c(F)c1 [Compound 143]
+ | + | COc1ccc(CNC(=O)c2ccc(Br)cc2C)cc1 [Compound 116]

From patent publication US9670162B2, “Mitochondrial aldehyde dehyrogenase-2 modulators and methods of use thereof” (The Board of Trustees of the Leland Stanford Junior …, priority 2013, dated 2017)
